Reference: patent publication US9056152B2, “Medical device with crystalline drug coating” (Boston Scientific Scimed, Inc., priority 2011, dated 2015)

Experiments:
[1] = Porcine animal study of everolimus coated stents: drug in artery tissue (LC/MS) and drug remaining on stent (HPLC); assay type: in vivo, common swine; conditions: explanted at 28 days; for Tissue content at 28 days: 130 μg on 12 mm stents implanted in coronary and internal thoracic arteries of swine, drug in arteries by LC/MS; for % drug left on stent at 28 days: 130 μg on 12 mm stents implanted in swine arteries, drug remaining on stent by HPLC
Method: Stents coated with either crystalline or amorphous everolimus (130 μg on 12 mm stents) were implanted in the coronary arteries and internal thoracic arteries of common swine. The stented vessels were explanted after 3 hrs, 24 hrs, 7, 14 and 28 days. N=3 stents per timepoint were used. After sacrifice the stents were removed from the arteries and the amount of drug in the arteries was determined by LC/MS. The amount of drug remaining on the stent was determined by HPLC.

[2] = Everolimus solubility in water @ 37° C., amorphous vs crystalline form; assay type: physicochemical; conditions: data shown in FIG. 1
Method: FIG. 1 is a graph comparing everolimus solubility data in water @ 37° C. for amorphous and crystalline forms.

[3] = listed as crystalline everolimus

| Structure (SMILES) | Tissue content at 28 days [1] | Tissue content at 28 days ([1]; listed as amorphous everolimus) | % drug left on stent at 28 days [1] | % drug left on stent at 28 days ([1]; listed as amorphous drug) | Tissue content at 28 days [1, 3] | % drug left on stent at 28 days [1, 3] | solubility in water [2] |
| --- | --- | --- | --- | --- | --- | --- | --- |
| CO[C@H]1C[C@@H]2CC[C@@H](C)[C@@](O)(O2)C(=O)C(=O)N2CCCC[C@H]2C(=O)O[C@H]([C@H](C)C[C@@H]2CC[C@@H](OCCO)[C@H](OC)C2)CC(=O)[C@H](C)/C=C(\C)[C@@H](O)[C@@H](OC)C(=O)[C@H](C)C[C@H](C)/C=C/C=C/C=C/1C [Amorphous Everolimus, 40-O-(2-Hydroxyethyl)rapamycin] | 0.04 ng/mg | essentially no drug in the tissue | 0% | no drug remaining on the stents | – | – | – |
| CO[C@H]1C[C@@H]2CC[C@@H](C)[C@@](O)(O2)C(=O)C(=O)N2CCCC[C@H]2C(=O)O[C@H]([C@H](C)C[C@@H]2CC[C@@H](OCCO)[C@H](OC)C2)CC(=O)[C@H](C)/C=C(\C)[C@@H](O)[C@@H](OC)C(=O)[C@H](C)C[C@H](C)/C=C/C=C/C=C/1C [Crystalline Everolimus, 40-O-(2-Hydroxyethyl)rapamycin] | 6.1 ng/mg | – | 25.8% | – | 6 ng/mg | 25% | much lower solubility in water than amorphous everolimus |
